Results: patent US20120190703A1, “SALTS OF 13A-(S)DESOXYTYLOPHORININE, PREPARATION METHODS AND PHARMACEUTICAL COMPOSITIONS AND USES THEREOF” (priority 2009, published 2012)
Where “and” joins values, the source holds several entries; their conditions need not be identical. Equal values may be shown once. Where a name gives a salt, the structure may show the parent alone. Read-outs that look alike come from different tables or passages of the source. Marks after values point to notes of the source that are not given here.

Assays:
[1] = test system: H22 tumor-bearing mice
Description: To determine the pharmacodynamic characters of 13a-(S)-deoxytylophorinine and its salts, the impact of these compounds to the tumor growth in H22 tumor-bearing mice was surveyed.
Male Kunming mice were obtained from the Laboratory Animal Center, Academy of Military Medical Science. Body weight 18˜22 g. 6 animals per group, totally 10 groups, 60 animals.
(+)-13a-(S)-deoxytylophorinine, (+)-13a-(S)-deoxytylophorinine Tartrate, (+)-13a-(S)-deoxytylophorinine Maleate, (+)-13a-(S)-deoxytylophorinine Citrate, Cytoxane (CTX) as positive control.
(+)-13a-(S)-deoxytylophorinine was administered at high dose (5 mg/kg) and low dose (2.5 mg/kg). Three (+)-13a-(S)-deoxytylophorinine salts were administered at high dose and low dose as equal moles with their prototype (Tartrate: 7.05 mg/kg, 3.53 mg/kg; Malate: 6.60 mg/kg, 3.30 mg/kg; Citrate: 7.90 mg/kg, 3.95 mg/kg).
(§1) Animals were reared in SPF grade circumstance to be observed for 24 h. The tumor cells liquid which resuscitated in abdominal cavity of KM mice was diluted with aseptic normal saline at 1:3 ratio. The resulting liquid was inoculated subcutaneously at forelimb with 0.2 mL every animal. After the injection over, the animals were divided to 12 groups with 6 animals per group.
Four experimental samples were intragastric administered once daily 24 h after inoculation. The positive control CTX was intraperitoneal injected once daily. The animal body weight was recorded every day.

[2] = test system: H22 tumor-bearing mice; remark: listed apart in the source
Procedure: To observe the impact of 13a-(S)-deoxytylophorinine Sulfate: on the tumor growth of H22 tumor-bearing mice.
Male Kunming mice were obtained from the Laboratory Animal Center, Academy of Military Medical Science. Body weight 18˜22 g.
(+)-13a-(S)-deoxytylophorinine Sulfate, Cytoxane (CTX) as positive control.
All the samples were administered orally. o.d. 0.2 ml/10 g.
(+)-13a-(S)-deoxytylophorinine Sulfate was administered at five dose groups: 3 mg/kg, 4 mg/kg, 5 mg/kg, 6 mg/kg and 8 mg/kg.
as §1, with “KM species” for “KM”, “13 groups. Experimental samples were administered 24 h after inoculation.” for “12 groups with 6 animals per group.”

[3] = Solubility in water; assay type: physicochemical; conditions: for solubility: water
[4] = Plasma pharmacokinetics after oral administration in mice
Procedure: To determine the pharmacokinetic characters of 13a-(S)-deoxytylophorinine and its salts, the studies about plasma pharmacokinetics and the character of distribution in brain were pursued.
(§2) Male ICR mice. Body weight 18˜22 g.
(+)-13a-(S)-deoxytylophorinine Tartrate, (+)-13a-(S)-deoxytylophorinine Maleate, (+)-13a-(S)-deoxytylophorinine Citrate. All were dissolved in distilled water as 0.6 mg/ml solution before experiment progressed.
72 mice were divided to 3 groups with 24 animals per group, fasting for 16 h and drinking water freely. […] Plasma was isolated by centrifugalization. After the salts were administered orally, the brain tissues of mice were collected at 5 min, 15 min, 2 h time points. 25% tissue homogenate was prepared with normal saline addition. 200 μL of homogenate and plasma were added isovolumic MeCN to precipitate protein. 5 μL of clear supernatant was analyzed by LC/MS/MS.
(+)-13a-(S)-deoxytylophorinine was dissolved in DMSO and then diluted with MeOH with concentration 10, 50, 100, 500, 1000 and 2500 ng/ml respectively. 10 μl of standard solutions of (+)-13a-(S)-deoxytylophorinine with different concentration above were added to 200 μl of blank plasma sequently to adjust the concentration to 0.5, 2.5, 5, 25, 50, 125 ng/ml respectively. MeCN was added to the solution to precipitate protein, and 5 μl of result clear supernatant was analyzed with LC/MS/MS. Linear regression was ran with the peak area of (+)-13a-(S)-deoxytylophorinine as ordinate and the concentrations as abscissa.

[5] = Drug distribution in brain tissue after oral administration in mice; assay type: in vivo, ICR mice; conditions: for Brain contents of (+)-13a-(S)-deoxytylophorinine (ng/ml), Mean ± SD / Brain contents of (+)-13a-(S)-deoxytylophorinine (ng/ml), individual animals 1-3: 6 mg/kg oral
Procedure: as §2
Plasma was isolated by centrifugalization. […] 25% tissue homogenate was prepared with normal saline addition.
The drug concentration-time data in brain tissue after administered orally of (+)-13a-(S)-deoxytylophorinine tartrate, maleate and citrate were represented in Table 8˜10 and FIG. 6˜8. […] (+)-13a-(S)-deoxytylophorinine could be detected in 5 min. The peak concentration was reached after 15 min, and the compound still can be detected after 2 h after administration.

[6] = high dose × 7 d, intragastric once daily, equal moles: prototype 5.0, tartrate 7.05, maleate 6.60, citrate 7.90 mg/kg
[7] = low dose × 7 d, intragastric once daily, equal moles: prototype 2.5, tartrate 3.53, maleate 3.30, citrate 3.95 mg/kg
[8] = 6 mg/kg oral, mice, Time (min) 0.5
[9] = 6 mg/kg oral, mice, Time (min) 1
[10] = male, ICR, mouse, plasma, po, 6 mg/kg

SMILES: O=P1(N(CCCl)CCCl)NCCCO1 (stereo not drawn) [CTX, Cytoxan, reference compound]
- Animal No. (Initial/Final) ([1]; 100 mg/kg × 1, i.p.): 6/6
- Body Weight(g) Final ([1]; 100 mg/kg × 1, i.p.): 23.77 ± 1.38 g
- Body Weight(g) Initial ([1]; 100 mg/kg × 1, i.p.): 21.33 ± 1.63 g⁻¹
- Inhibition (%) ([1]; 100 mg/kg × 1, i.p.): 48.47* %
- Tumor Weight (g, mean ± SD) ([1]; 100 mg/kg × 1, i.p.): 0.59 ± 0.26 g
- Animal No. (Initial/Final) ([2]; 100 mg/kg × 1, i.p.): 6/6
- Body Weight(g) Final ([2]; 100 mg/kg × 1, i.p.): 25.00 ± 2.37 g
- Body Weight(g) Initial ([2]; 100 mg/kg × 1, i.p.): 20.67 ± 2.07 g⁻¹
- Inhibition (%) ([2]; 100 mg/kg × 1, i.p.): 94.76** %
- Tumor Weight (g, mean ± SD) ([2]; 100 mg/kg × 1, i.p.): 0.07 ± 0.04 g

SMILES: COc1ccc2c3c(c4cc(OC)c(OC)cc4c2c1)CN1CCC[C@H]1C3.O=C(O)CC(O)(CC(=O)O)C(=O)O [Citrate, (+)-13a-(S)-deoxytylophorinine Citrate]
- Animal No. (Initial/Final) [1, 6]: 6/5
- Body Weight(g) Final [1, 6]: 14.27 ± 2.61 g
- Body Weight(g) Initial [1, 6]: 22.00 ± 1.55 g⁻¹
- Inhibition (%) [1, 6]: 80.44** %
- Tumor Weight (g, mean ± SD) [1, 6]: 0.22 ± 0.13 g
- Animal No. (Initial/Final) [1, 7]: 6/6
- Body Weight(g) Final [1, 7]: 21.01 ± 2.04 g
- Body Weight(g) Initial [1, 7]: 21.83 ± 0.75 g⁻¹
- Inhibition (%) [1, 7]: 46.87* %
- Tumor Weight (g, mean ± SD) [1, 7]: 0.61 ± 0.35 g
- Solubility in water (words) [3]: soluble in water
- solubility [3]: 33 mg/mL
- Peak concentration in blood ([4]; 6 mg/kg oral, mice): 20.1 ± 12.2 ng/mL
- Time of peak concentration in blood ([4]; 6 mg/kg oral, mice): 15 min
- t½z ([4]; 6 mg/kg oral, mice, plasma, non-compartment model): 0.86 h
- Blood concentration of (+)-13a-(S)-deoxytylophorinine (ng/ml), Mean ± SD [4, 8]: 12.6 ± 6.5 ng/mL
- Blood concentration of (+)-13a-(S)-deoxytylophorinine (ng/ml), individual animals 1-3 [4, 8]: 20.1 ng/mL and 8.4 ng/mL and 9.3 ng/mL
- Blood concentration of (+)-13a-(S)-deoxytylophorinine (ng/ml), Mean ± SD [4, 9]: 8.4 ± 2.9 ng/mL
- Blood concentration of (+)-13a-(S)-deoxytylophorinine (ng/ml), individual animals 1-3 [4, 9]: 11.2 ng/mL and 5.4 ng/mL and 8.5 ng/mL
- AUC(0-inf) [4, 10]: 33.1 ng·h/mL
- AUC(0-t) [4, 10]: 32.7 ng·h/mL
- Cmax [4, 10]: 20.1 ng/mL
- MRT inf [4, 10]: 2.29 h
- MRT last [4, 10]: 1.73 h
- Tmax [4, 10]: 0.25 h
- Brain contents of (+)-13a-(S)-deoxytylophorinine (ng/ml), Mean ± SD ([5]; Time (min) 5): 23.6 ± 12.7 ng/mL
- Brain contents of (+)-13a-(S)-deoxytylophorinine (ng/ml), individual animals 1-3 ([5]; Time (min) 5): 22.0 ng/mL and 37.1 ng/mL and 11.8 ng/mL
- Brain contents of (+)-13a-(S)-deoxytylophorinine (ng/ml), Mean ± SD ([5]; Time (min) 15): 87.3 ± 50.1 ng/mL
- Brain contents of (+)-13a-(S)-deoxytylophorinine (ng/ml), individual animals 1-3 ([5]; Time (min) 15): 84.8 ng/mL and 138.7 ng/mL and 38.5 ng/mL
- Brain contents of (+)-13a-(S)-deoxytylophorinine (ng/ml), Mean ± SD ([5]; Time (min) 120): 48.7 ± 14.1 ng/mL
- Brain contents of (+)-13a-(S)-deoxytylophorinine (ng/ml), individual animals 1-3 ([5]; Time (min) 120): 37.0 ng/mL and 44.8 ng/mL and 64.4 ng/mL
- Drug contents in brain compared with prototype ([5]; oral, 3 time points): lower than its prototype

SMILES: COc1ccc2c3c(c4cc(OC)c(OC)cc4c2c1)CN1CCC[C@H]1C3 [Sulfate, (+)-13a-(S)-deoxytylophorinine Sulfate]
- solubility [3]: 200 mg/mL
- Animal No. (Initial/Final) ([2]; 3 mg/kg × 7, oral (o.p.)): 6/6
- Body Weight(g) Final ([2]; 3 mg/kg × 7, oral (o.p.)): 26.83 ± 2.56 g
- Body Weight(g) Initial ([2]; 3 mg/kg × 7, oral (o.p.)): 20.67 ± 0.52 g⁻¹
- Inhibition (%) ([2]; 3 mg/kg × 7, oral (o.p.)): 22.49* %
- Tumor Weight (g, mean ± SD) ([2]; 3 mg/kg × 7, oral (o.p.)): 0.98 ± 0.21 g
- Animal No. (Initial/Final) ([2]; 4 mg/kg × 7, oral (o.p.)): 6/6
- Body Weight(g) Final ([2]; 4 mg/kg × 7, oral (o.p.)): 22.83 ± 2.40 g
- Body Weight(g) Initial ([2]; 4 mg/kg × 7, oral (o.p.)): 20.00 ± 1.26 g⁻¹
- Inhibition (%) ([2]; 4 mg/kg × 7, oral (o.p.)): 52.51* %
- Tumor Weight (g, mean ± SD) ([2]; 4 mg/kg × 7, oral (o.p.)): 0.60 ± 0.32 g
- Animal No. (Initial/Final) ([2]; 5 mg/kg × 7, oral (o.p.)): 6/6
- Body Weight(g) Final ([2]; 5 mg/kg × 7, oral (o.p.)): 22.17 ± 5.31 g
- Body Weight(g) Initial ([2]; 5 mg/kg × 7, oral (o.p.)): 19.83 ± 1.72 g⁻¹
- Inhibition (%) ([2]; 5 mg/kg × 7, oral (o.p.)): 41.75* %
- Tumor Weight (g, mean ± SD) ([2]; 5 mg/kg × 7, oral (o.p.)): 0.73 ± 0.39 g
- Deaths of mice (table note) ([2]; 6 mg/kg orally): After (+)-13a-(S)-deoxytylophorinine Sulfate (6 mg/kg) was administered orally, one of mice died on sixth day, two of mice died on seventh day. Stop administion.
- Animal No. (Initial/Final) ([2]; 6 mg/kg × 6, oral (o.p.)): 6/3
- Body Weight(g) Final ([2]; 6 mg/kg × 6, oral (o.p.)): 15.33 ± 3.21 g
- Body Weight(g) Initial ([2]; 6 mg/kg × 6, oral (o.p.)): 19.83 ± 1.72 g⁻¹
- Inhibition (%) ([2]; 6 mg/kg × 6, oral (o.p.)): 68.52** %
- Tumor Weight (g, mean ± SD) ([2]; 6 mg/kg × 6, oral (o.p.)): 0.40 ± 0.24 g
- Deaths of mice (table note) ([2]; 8 mg/kg orally): After (+)-13a-(S)-deoxytylophorinine Sulfate (8 mg/kg) was administered orally, one of mice died on sixth day, two of mice died on seventh day. Stop administion.
- Animal No. (Initial/Final) ([2]; 8 mg/kg × 6, oral (o.p.)): 6/0
- Body Weight(g) Initial ([2]; 8 mg/kg × 6, oral (o.p.)): 20.67 ± 1.03 g⁻¹
- Inhibition (%) ([2]; 8 mg/kg × 6, oral (o.p.)): 88.49** %
- Tumor Weight (g, mean ± SD) ([2]; 8 mg/kg × 6, oral (o.p.)): 0.15 ± 0.04 g
